# Laboratory results reported in ChEMBL document CHEMBL1143045, “Tricyclic isoxazolines: identification of R226161 as a potential new antidepressant that combines potent serotonin reuptake inhibition and alpha2-adrenoceptor antagonism” (Bioorg Med Chem, 2007).
# Activity calls are given as the source filed them. No cut-off for these calls is given here.
# Tests used:
# [1] = target: T1, Alpha-2B adrenergic receptor (Homo sapiens, UniProt P18089); experiment: Displacement of [3H]rawolscine from human cloned adrenergic alpha-2B receptor transfected in CHO cells; type: cell-based
# T1 sequence (P18089 whole entry): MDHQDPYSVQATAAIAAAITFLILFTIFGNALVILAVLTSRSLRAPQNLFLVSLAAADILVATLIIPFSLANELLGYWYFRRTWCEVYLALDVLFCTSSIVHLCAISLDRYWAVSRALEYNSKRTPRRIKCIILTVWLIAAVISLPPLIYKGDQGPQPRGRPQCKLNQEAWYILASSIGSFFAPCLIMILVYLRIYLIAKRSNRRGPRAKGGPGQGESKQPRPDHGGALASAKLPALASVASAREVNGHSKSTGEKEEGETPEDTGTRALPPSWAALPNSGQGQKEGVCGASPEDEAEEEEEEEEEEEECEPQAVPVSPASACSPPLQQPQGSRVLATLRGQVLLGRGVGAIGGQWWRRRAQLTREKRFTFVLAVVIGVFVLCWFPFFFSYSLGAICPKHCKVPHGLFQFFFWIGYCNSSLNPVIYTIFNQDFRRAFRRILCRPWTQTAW
# [2] = target: T2, Alpha-2C adrenergic receptor (Homo sapiens, UniProt P18825); experiment: Displacement of [3H]rawolscine from human cloned adrenergic Alpha-2C receptor transfected in CHO cells; type: cell-based
# T2 sequence (P18825 whole entry): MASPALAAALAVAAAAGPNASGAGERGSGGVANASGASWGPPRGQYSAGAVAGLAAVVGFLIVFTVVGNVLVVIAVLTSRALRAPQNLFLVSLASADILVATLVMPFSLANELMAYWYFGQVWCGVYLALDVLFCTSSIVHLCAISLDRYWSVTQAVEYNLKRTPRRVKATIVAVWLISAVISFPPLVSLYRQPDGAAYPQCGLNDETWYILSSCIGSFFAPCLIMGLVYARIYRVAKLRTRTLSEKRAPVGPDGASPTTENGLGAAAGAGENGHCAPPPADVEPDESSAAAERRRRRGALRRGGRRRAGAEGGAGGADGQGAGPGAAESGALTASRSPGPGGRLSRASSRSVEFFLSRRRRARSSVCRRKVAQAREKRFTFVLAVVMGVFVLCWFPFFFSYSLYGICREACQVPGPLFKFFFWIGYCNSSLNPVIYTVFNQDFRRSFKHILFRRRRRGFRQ
# [3] = target: Sodium-dependent serotonin transporter (Homo sapiens, UniProt P31645); experiment: Displacement of [3H]paroxetine from human cloned 5HTT receptor transfected in CHO cells; type: cell-based
# Chain of Sodium-dependent serotonin transporter (P31645 whole entry): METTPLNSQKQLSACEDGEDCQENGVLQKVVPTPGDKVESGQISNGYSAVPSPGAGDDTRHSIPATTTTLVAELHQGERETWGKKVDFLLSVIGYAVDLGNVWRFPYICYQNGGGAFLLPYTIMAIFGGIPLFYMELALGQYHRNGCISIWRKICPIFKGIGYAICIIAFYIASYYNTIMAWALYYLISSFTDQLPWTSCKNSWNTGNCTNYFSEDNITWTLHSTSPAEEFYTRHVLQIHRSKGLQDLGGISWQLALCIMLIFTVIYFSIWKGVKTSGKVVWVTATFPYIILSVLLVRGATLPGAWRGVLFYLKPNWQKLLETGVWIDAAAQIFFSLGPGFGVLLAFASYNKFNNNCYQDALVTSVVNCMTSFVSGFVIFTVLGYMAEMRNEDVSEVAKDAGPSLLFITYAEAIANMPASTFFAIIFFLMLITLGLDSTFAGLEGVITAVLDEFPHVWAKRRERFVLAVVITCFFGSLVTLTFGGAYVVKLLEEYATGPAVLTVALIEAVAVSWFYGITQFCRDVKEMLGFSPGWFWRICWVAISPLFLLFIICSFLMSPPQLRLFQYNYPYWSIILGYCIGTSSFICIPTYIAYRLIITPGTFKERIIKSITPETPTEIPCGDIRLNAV
# [4] = target: T3, Adrenergic receptor alpha-2 (Rattus norvegicus) (UniProt P22086+P19328+P22909); experiment: Reversal of medetomidine-induced loss of righting reflex in po dosed Wistar rat after 1hr; type: functional, organism-based
# [5] = target: Sodium-dependent serotonin transporter (Rattus norvegicus) (UniProt P31652); experiment: Antagonism of p-chloroamphetamine-induced 5HT depletion in sc dosed Wistar rat prefrontal cortex after 1 hr; type: functional, organism-based
# Chain of Sodium-dependent serotonin transporter (Rattus norvegicus) (P31652 whole entry): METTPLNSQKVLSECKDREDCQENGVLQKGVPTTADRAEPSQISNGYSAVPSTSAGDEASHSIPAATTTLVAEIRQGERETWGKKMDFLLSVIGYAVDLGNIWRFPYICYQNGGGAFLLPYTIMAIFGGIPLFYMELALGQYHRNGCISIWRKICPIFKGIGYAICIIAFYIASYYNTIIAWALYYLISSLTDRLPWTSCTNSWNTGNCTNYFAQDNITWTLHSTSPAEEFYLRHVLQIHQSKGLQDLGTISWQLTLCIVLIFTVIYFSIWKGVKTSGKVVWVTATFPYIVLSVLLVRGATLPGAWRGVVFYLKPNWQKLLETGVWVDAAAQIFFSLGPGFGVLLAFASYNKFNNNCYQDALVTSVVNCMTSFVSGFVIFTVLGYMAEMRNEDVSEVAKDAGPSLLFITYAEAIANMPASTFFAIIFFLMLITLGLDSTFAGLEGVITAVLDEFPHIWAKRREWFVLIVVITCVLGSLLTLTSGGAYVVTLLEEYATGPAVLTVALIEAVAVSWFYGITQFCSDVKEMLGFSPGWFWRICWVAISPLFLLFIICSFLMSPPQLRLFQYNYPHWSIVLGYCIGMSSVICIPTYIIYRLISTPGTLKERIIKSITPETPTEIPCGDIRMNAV
# [6] = target: T3, Adrenergic receptor alpha-2 (Rattus norvegicus); experiment: Reversal of medetomidine-induced loss of righting reflex in sc dosed Wistar rat after 1hr; type: functional, organism-based
# [7] = target: Sodium-dependent serotonin transporter (Rattus norvegicus) (UniProt P31652); experiment: Antagonism of p-chloroamphetamine-induced excitation in po dosed Wistar rat after 1 hr; type: functional, organism-based
# [8] = target: Sodium-dependent serotonin transporter (Rattus norvegicus) (UniProt P31652); experiment: Antagonism of p-chloroamphetamine-induced excitation in sc dosed Wistar rat after 1 hr; type: functional, organism-based
# [9] = target: Sodium-dependent serotonin transporter (Rattus norvegicus) (UniProt P31652); experiment: Antagonism of p-chloroamphetamine-induced 5HT depletion in po dosed Wistar rat prefrontal cortex after 1 hr; type: functional, organism-based
# [10] = target: T4, Alpha-2A adrenergic receptor (Homo sapiens, UniProt P08913); experiment: Displacement of [3H]rawolscine from human cloned adrenergic alpha2A receptor transfected in CHO cells; type: cell-based
# T4 sequence (P08913 whole entry): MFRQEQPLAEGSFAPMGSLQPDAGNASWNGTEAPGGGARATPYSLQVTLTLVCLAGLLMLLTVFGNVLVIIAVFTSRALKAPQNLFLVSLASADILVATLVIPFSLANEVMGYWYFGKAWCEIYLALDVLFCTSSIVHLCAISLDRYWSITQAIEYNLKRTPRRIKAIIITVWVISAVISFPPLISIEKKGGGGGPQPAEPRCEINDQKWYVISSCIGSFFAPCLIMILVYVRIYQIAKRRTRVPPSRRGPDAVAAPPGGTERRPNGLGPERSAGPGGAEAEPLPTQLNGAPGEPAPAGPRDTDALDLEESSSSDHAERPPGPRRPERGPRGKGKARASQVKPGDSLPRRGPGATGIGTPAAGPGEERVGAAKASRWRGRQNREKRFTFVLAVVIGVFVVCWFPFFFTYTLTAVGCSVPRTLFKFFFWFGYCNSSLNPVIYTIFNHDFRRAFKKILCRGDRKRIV
# Histamine H1 receptor = Histamine H1 receptor (Homo sapiens, UniProt P35367); experiment: Displacement of [3H]pyrilamine from human cloned histamine H1 receptor
# Chain of Histamine H1 receptor (P35367 whole entry): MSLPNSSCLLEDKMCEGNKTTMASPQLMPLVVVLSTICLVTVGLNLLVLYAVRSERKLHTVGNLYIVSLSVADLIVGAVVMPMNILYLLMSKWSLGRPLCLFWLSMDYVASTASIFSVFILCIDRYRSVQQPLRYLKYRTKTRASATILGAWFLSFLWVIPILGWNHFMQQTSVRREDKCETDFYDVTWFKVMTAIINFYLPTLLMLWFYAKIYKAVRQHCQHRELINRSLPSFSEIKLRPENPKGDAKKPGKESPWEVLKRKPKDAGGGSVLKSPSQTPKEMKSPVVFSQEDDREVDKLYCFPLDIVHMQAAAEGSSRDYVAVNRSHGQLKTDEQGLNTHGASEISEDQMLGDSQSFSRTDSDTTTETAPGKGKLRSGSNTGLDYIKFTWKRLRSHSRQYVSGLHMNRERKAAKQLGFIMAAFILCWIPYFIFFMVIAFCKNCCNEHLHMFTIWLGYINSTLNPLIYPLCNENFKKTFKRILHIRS
# [11] = target: Sodium-dependent dopamine transporter (Rattus norvegicus, UniProt P23977); experiment: Displacement of [3H]WIN-35428 from rat DAT
# Chain of Sodium-dependent dopamine transporter (P23977 whole entry): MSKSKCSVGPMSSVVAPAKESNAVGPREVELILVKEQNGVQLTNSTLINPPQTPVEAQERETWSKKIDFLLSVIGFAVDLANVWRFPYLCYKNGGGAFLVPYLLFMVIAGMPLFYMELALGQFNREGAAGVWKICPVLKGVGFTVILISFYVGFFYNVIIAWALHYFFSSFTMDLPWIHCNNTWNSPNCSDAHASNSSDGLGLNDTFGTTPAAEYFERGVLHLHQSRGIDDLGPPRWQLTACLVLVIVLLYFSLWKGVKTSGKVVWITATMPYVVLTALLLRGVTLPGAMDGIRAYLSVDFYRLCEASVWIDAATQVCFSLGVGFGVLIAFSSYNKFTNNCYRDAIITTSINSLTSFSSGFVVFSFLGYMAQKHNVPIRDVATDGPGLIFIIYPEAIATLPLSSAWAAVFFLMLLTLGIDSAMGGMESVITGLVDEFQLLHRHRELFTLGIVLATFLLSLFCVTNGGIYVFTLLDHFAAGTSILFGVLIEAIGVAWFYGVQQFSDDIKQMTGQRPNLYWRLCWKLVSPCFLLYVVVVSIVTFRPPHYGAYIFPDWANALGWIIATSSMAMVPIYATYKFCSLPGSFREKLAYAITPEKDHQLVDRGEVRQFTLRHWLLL
# Substance-P receptor = Substance-P receptor (Homo sapiens, UniProt P25103); experiment: Displacement of [3H]substance P from human cloned NK1 receptor
# Chain of Substance-P receptor (P25103 whole entry): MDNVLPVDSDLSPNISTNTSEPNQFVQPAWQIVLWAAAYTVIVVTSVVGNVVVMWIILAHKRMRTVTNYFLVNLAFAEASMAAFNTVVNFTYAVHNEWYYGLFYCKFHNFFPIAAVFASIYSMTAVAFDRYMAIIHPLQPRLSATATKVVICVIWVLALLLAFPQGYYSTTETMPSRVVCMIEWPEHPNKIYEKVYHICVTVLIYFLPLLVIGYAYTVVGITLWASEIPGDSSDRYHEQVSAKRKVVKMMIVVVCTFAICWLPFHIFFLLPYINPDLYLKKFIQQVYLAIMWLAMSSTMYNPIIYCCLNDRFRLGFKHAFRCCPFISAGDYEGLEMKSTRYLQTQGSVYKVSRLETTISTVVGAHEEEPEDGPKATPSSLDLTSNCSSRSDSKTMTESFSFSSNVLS
# [12] = target: T5, Alpha-1A adrenergic receptor (Homo sapiens, UniProt P35348); experiment: Displacement of [3H]prazosin from human cloned alpha-1A receptor
# T5 sequence (P35348 whole entry): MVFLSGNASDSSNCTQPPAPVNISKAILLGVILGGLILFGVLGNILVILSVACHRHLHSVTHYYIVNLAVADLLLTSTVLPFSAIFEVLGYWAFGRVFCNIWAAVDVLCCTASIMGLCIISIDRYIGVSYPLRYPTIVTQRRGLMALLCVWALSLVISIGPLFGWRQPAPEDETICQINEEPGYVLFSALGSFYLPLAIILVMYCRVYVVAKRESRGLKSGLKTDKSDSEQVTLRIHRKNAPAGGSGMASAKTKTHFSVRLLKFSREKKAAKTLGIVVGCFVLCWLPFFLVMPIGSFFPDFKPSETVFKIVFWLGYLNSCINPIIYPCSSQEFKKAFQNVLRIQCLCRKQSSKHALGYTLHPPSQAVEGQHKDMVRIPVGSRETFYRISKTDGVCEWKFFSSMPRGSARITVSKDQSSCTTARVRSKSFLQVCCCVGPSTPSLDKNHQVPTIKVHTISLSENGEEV
# D(3) dopamine receptor = D(3) dopamine receptor (Homo sapiens, UniProt P35462); experiment: Displacement of [125I]iodosulpiride from human cloned dopamine D3 receptor
# Chain of D(3) dopamine receptor (P35462 whole entry): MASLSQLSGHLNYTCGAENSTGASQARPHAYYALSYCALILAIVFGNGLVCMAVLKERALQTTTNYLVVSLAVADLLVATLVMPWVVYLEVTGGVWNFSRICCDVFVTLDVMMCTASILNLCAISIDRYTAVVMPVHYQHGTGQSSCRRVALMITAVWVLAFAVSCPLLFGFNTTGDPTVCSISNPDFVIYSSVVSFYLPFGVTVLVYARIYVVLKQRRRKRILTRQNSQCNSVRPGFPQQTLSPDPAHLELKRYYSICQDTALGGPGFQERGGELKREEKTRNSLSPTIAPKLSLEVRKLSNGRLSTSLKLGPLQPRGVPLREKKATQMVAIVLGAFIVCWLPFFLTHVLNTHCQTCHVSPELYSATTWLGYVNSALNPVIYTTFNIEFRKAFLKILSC
# [13] = target: Norepinephrine transporter (Rattus norvegicus, UniProt Q9WTR4); experiment: Displacement of [3H]nisoxetine from rat NET
# Chain of Norepinephrine transporter (Q9WTR4 whole entry): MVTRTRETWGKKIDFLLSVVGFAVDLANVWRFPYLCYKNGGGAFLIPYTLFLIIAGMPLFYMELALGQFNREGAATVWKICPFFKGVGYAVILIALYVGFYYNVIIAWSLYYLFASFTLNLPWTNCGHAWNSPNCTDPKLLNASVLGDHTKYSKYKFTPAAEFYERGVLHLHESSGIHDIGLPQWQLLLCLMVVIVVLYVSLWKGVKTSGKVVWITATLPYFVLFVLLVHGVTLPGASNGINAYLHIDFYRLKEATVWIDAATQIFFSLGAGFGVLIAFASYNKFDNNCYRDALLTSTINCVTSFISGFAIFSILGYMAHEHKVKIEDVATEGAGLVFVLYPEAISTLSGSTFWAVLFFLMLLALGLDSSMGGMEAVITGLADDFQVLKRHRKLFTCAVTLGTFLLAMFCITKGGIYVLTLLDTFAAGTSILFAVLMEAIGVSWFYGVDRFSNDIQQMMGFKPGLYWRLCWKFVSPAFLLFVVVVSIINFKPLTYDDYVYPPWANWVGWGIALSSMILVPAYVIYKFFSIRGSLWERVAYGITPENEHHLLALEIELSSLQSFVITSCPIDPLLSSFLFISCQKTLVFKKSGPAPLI
# [14] = target: T3, Adrenergic receptor alpha-2 (Rattus norvegicus); experiment: Reversal of medetomidine-induced loss of righting reflex in sc dosed Wistar rat after 16 hrs; type: functional, organism-based
# [15] = target: T3, Adrenergic receptor alpha-2 (Rattus norvegicus); experiment: Reversal of medetomidine-induced loss of righting reflex in po dosed Wistar rat after 2 hrs; type: functional, organism-based
# [16] = target: T6, Alpha-2B adrenergic receptor (Homo sapiens) (UniProt P18089); experiment: Antagonist activity at human alpha-2B receptor transfected in CHO cells by [35S]GTPgammaS binding assay; type: functional, cell-based
# T6 sequence (whole entry): T1 sequence (P18089 whole entry)
# [17] = target: T3, Adrenergic receptor alpha-2 (Rattus norvegicus); experiment: Reversal of medetomidine-induced loss of righting reflex in sc dosed Wistar rat after 0.5 hrs; type: functional, organism-based
# [18] = target: T3, Adrenergic receptor alpha-2 (Rattus norvegicus); experiment: Receptor occupancy ex vivo by displacement of [3H]idazoxan binding from alpha-2 adrenoceptor in po dosed Wistar rat entorhinal cortex after 1 hr; type: functional, organism-based
# [19] = target: T3, Adrenergic receptor alpha-2 (Rattus norvegicus); experiment: Reversal of medetomidine-induced loss of righting reflex in po dosed Wistar rat after 0.5 hrs; type: functional, organism-based
# [20] = target: T3, Adrenergic receptor alpha-2 (Rattus norvegicus); experiment: Reversal of medetomidine-induced loss of righting reflex in sc dosed Wistar rat after 32 hrs; type: functional, organism-based
# [21] = target: T7, Alpha-2C adrenergic receptor (Homo sapiens) (UniProt P18825); experiment: Antagonist activity at human alpha-2C receptor transfected in CHO cells by [35S]GTPgammaS binding assay; type: functional, cell-based
# T7 sequence (whole entry): T2 sequence (P18825 whole entry)
# [22] = target: T3, Adrenergic receptor alpha-2 (Rattus norvegicus); experiment: Receptor occupancy ex vivo by displacement of [3H]idazoxan binding from alpha-2 adrenoceptor in sc dosed Wistar rat entorhinal cortex after 1 hr; type: functional, organism-based
# [23] = target: T3, Adrenergic receptor alpha-2 (Rattus norvegicus); experiment: Reversal of medetomidine-induced loss of righting reflex in sc dosed Wistar rat after 4 hrs; type: functional, organism-based
# [24] = target: T7, Alpha-2C adrenergic receptor (Homo sapiens); experiment: Agonist activity at human adrenergic Alpha-2C receptor transfected in CHO cells by [35S]GTPgammaS binding assay; type: functional, cell-based
# [25] = target: T3, Adrenergic receptor alpha-2 (Rattus norvegicus); experiment: Reversal of medetomidine-induced loss of righting reflex in sc dosed Wistar rat after 8 hrs; type: functional, organism-based
# [26] = target: T6, Alpha-2B adrenergic receptor (Homo sapiens); experiment: Agonist activity at human adrenergic alpha-2B receptor transfected in CHO cells by [35S]GTPgammaS binding assay; type: functional, cell-based
# [27] = target: T3, Adrenergic receptor alpha-2 (Rattus norvegicus); experiment: Reversal of medetomidine-induced loss of righting reflex in po dosed Wistar rat after 16 hrs; type: functional, organism-based
# [28] = target: T3, Adrenergic receptor alpha-2 (Rattus norvegicus); experiment: Reversal of medetomidine-induced loss of righting reflex in po dosed Wistar rat after 4 hrs; type: functional, organism-based
# [29] = target: T3, Adrenergic receptor alpha-2 (Rattus norvegicus); experiment: Reversal of medetomidine-induced loss of righting reflex in po dosed Wistar rat after 1 hr; type: functional, organism-based
# [30] = target: T3, Adrenergic receptor alpha-2 (Rattus norvegicus); experiment: Reversal of medetomidine-induced loss of righting reflex in sc dosed Wistar rat after 2 hrs; type: functional, organism-based
# [31] = target: T3, Adrenergic receptor alpha-2 (Rattus norvegicus); experiment: Reversal of medetomidine-induced loss of righting reflex in sc dosed Wistar rat after 1 hr; type: functional, organism-based
# [32] = target: T3, Adrenergic receptor alpha-2 (Rattus norvegicus); experiment: Reversal of medetomidine-induced loss of righting reflex in po dosed Wistar rat after 8 hrs; type: functional, organism-based
smiles,measurement,setting,value
"COc1cc2c(cc1OC)C1=NOC(CN3CCN(C/C(C)=C/c4ccccc4)CC3)C1CN2 (single isomer, unassigned; (+)) [listing 1 of 2 here]",Ki,[1],0.0045 µM
same,Ki,[2],0.00093 µM
same,Ki,[3],0.079 µM
"COc1cc2c(cc1OC)C1=NOC(CN3CCN(C/C(C)=C/c4ccccc4)CC3)C1CN2 (single isomer, unassigned; (+)) [listing 2 of 2 here]",ED50,[4],0.63 mg/kg
same,ED50,[5],4.1 mg/kg
same,ED50,[6],0.08 mg/kg
same,ED50,[7],> 10 mg/kg
same,ED50,[8],> 10 mg/kg
"COc1cc2c(cc1OC)C1=NOC(CN3CCN(C/C=C/c4ccc(F)cc4)CC3)C1CO2 (single isomer, unassigned; (+))",ED50,[4],3.5 mg/kg
same,ED50,[5],0.03 mg/kg
same,ED50,[9],0.05 mg/kg
same,ED50,[6],3.1 mg/kg
same,ED50,[7],0.32 mg/kg
same,ED50,[8],0.05 mg/kg
"COc1cc2c(cc1OC)C1=NOC(CN3CCN(C/C(C)=C/c4ccccc4)CC3)C1CN2 (single isomer, unassigned; (-)) [listing 1 of 2 here]",Ki,[1],0.026 µM
same,Ki,[2],0.0083 µM
same,Ki,[3],0.024 µM
"COc1cc2c(cc1OC)C1=NOC(CN3CCN(C/C(C)=C/c4ccccc4)CC3)C1CN2 (single isomer, unassigned; (-)) [listing 2 of 2 here]",ED50,[4],> 10 mg/kg
same,ED50,[5],0.81 mg/kg
same,ED50,[6],> 10 mg/kg
same,ED50,[7],3.2 mg/kg
same,ED50,[8],0.32 mg/kg
COc1cc2c(cc1OC)C1=NO[C@@H](CN3CCN(C/C(C)=C/c4ccc(F)cc4)CC3)[C@@H]1CO2 (stereo in doubt; form 1) [listing 1 of 2 here],Ki,[10],0.0031 µM
same,Ki,Histamine H1 receptor,0.074 µM
same,Ki,[1],0.0015 µM
same,Ki,[2],0.00027 µM
same,Ki,[11],0.583 µM
same,Ki,Substance-P receptor,0.31 µM
same,Ki,[12],0.125 µM
same,Ki,D(3) dopamine receptor,0.375 µM
same,Ki,[13],0.07 µM
COc1cc2c(cc1OC)C1=NO[C@@H](CN3CCN(C/C(C)=C/c4ccc(F)cc4)CC3)[C@@H]1CO2 (stereo in doubt; form 1) [listing 2 of 2 here],ED50,[14],7.1 mg/kg
same,ED50,[15],2.7 mg/kg
same,Kb,[16],0.0014 µM
same,ED50,[4],1.3 mg/kg
same,ED50,[17],1.2 mg/kg
same,ED50,[18],8.8 mg/kg
same,ED50,[19],1 mg/kg
same,ED50,[20],> 10 mg/kg
same,Kb,[21],0.00091 µM
same,ED50,[22],2.6 mg/kg
same,ED50,[23],2.3 mg/kg
same,Activity,[24],inactive
same,ED50,[25],4.7 mg/kg
same,Activity,[26],inactive
same,ED50,[27],25 mg/kg
same,ED50,[6],2.7 mg/kg
same,ED50,[28],3.6 mg/kg
same,ED50,[29],1.3 mg/kg
same,ED50,[30],4.1 mg/kg
same,ED50,[31],2.7 mg/kg
same,ED50,[32],9.3 mg/kg
COc1cc2c(cc1OC)C1=NO[C@@H](CN3CCN(C/C(C)=C/c4ccc(F)cc4)CC3)[C@@H]1CO2 (stereo in doubt; form 2) [listing 1 of 2 here],Ki,[10],0.028 µM
same,Ki,[1],0.021 µM
same,Ki,[2],0.01 µM
COc1cc2c(cc1OC)C1=NO[C@@H](CN3CCN(C/C(C)=C/c4ccc(F)cc4)CC3)[C@@H]1CO2 (stereo in doubt; form 2) [listing 2 of 2 here],ED50,[6],5 mg/kg
